According to PubChem BioAssay AID248 (DTP/NCI, 2004):
Where “and” joins values, the source holds several entries; their conditions need not be identical. Identical values can stand only once. Toxic doses and inconclusive results are not listed. Cut-off read from the data, not from the text of the source: active = T/C of 150% or more; inactive = T/C below 125%.

System: L1210 leukemia ip in BDF1 mice, survival T/C
Experiment: NCI In Vivo Anticancer Drug Screen. Data for tumor model L1210 Leukemia (intraperitoneal) in B6D2F1 (BDF1) mice
Settings: endpoint: mean survival time, higher = longer survival
In short: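 In this screen, tumor-bearing mice given compound are compared to those given vehicle, and their survival values are reported as a treated-to-control quotient.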

[1] = dose: 100.0 mg/kg/injection, schedule: Q04DX003 (ip), vehicle: saline
[2] = dose: 100.0 mg/kg/injection, schedule: Q01DX009 (ip), vehicle: Klucel (hydroxypropylcellulose) (HPC)
[3] = dose: 100.0 mg/kg/injection, schedule: Q04DX003 (ip), vehicle: Klucel (hydroxypropylcellulose) (HPC)
[4] = dose: 200.0 mg/kg/injection, schedule: Q01DX009 (ip), vehicle: Klucel (hydroxypropylcellulose) (HPC)
[5] = dose: 200.0 mg/kg/injection, schedule: Q04DX003 (ip), vehicle: Klucel (hydroxypropylcellulose) (HPC)
[6] = dose: 400.0 mg/kg/injection, schedule: Q01DX009 (ip), vehicle: Klucel (hydroxypropylcellulose) (HPC)
[7] = dose: 400.0 mg/kg/injection, schedule: Q04DX003 (ip), vehicle: Klucel (hydroxypropylcellulose) (HPC)
[8] = dose: 100.0 mg/kg/injection, schedule: Q01DX009 (ip), vehicle: saline with Tween-80
[9] = dose: 400.0 mg/kg/injection, schedule: Q01DX009 (ip), vehicle: saline with Tween-80
[10] = dose: 100.0 mg/kg/injection, schedule: Q01DX001 (ip), vehicle: saline
[11] = dose: 200.0 mg/kg/injection, schedule: Q01DX001 (ip), vehicle: saline
[12] = dose: 50.0 mg/kg/injection, schedule: Q01DX009 (ip), vehicle: saline with Tween-80
[13] = dose: 200.0 mg/kg/injection, schedule: Q01DX009 (ip), vehicle: saline with Tween-80
[14] = dose: 100.0 mg/kg/injection, schedule: Q04DX002 (ip), vehicle: saline with Tween-80
[15] = dose: 200.0 mg/kg/injection, schedule: Q04DX002 (ip), vehicle: saline with Tween-80
[16] = dose: 400.0 mg/kg/injection, schedule: Q04DX002 (ip), vehicle: saline with Tween-80

Measured: T/C

Cc1cc(C(=O)O)c(C(=O)O)c(Cl)n1
inactive: dose: 75.0 mg/kg/injection, schedule: Q01DX001 (ip), vehicle: other 90 % of control | dose: 150.0 mg/kg/injection, schedule: Q01DX001 (ip), vehicle: other 95 % of control | dose: 300.0 mg/kg/injection, schedule: Q01DX001 (ip), vehicle: other 91 % of control

CCCCC[N+](C)(C)CCOC(=O)C1C2CC3OC(=O)C1C3C2 (stereo not given)
inactive: [1] 95 % of control

C=NN=C(N)N
inactive: dose: 0.38 mg/kg/injection, schedule: Q01DX Z (ip), vehicle: saline 100 % of control | dose: 0.75 mg/kg/injection, schedule: Q01DX Z (ip), vehicle: saline 92 % of control | dose: 3.0 mg/kg/injection, schedule: Q01DX Z (ip), vehicle: saline 87 % of control | dose: 6.0 mg/kg/injection, schedule: Q01DX Z (ip), vehicle: saline 106 % of control | dose: 12.0 mg/kg/injection, schedule: Q01DX Z (ip), vehicle: saline 102 % of control | dose: 15.0 mg/kg/injection, schedule: Q01DX Z (ip), vehicle: saline 100 % of control | dose: 15.0 mg/kg/injection, schedule: Q01DX Z (oral), vehicle: saline 86 % of control | dose: 30.0 mg/kg/injection, schedule: Q01DX Z (ip), vehicle: saline 105 % of control | dose: 30.0 mg/kg/injection, schedule: Q01DX Z (oral), vehicle: saline 92 % of control

O=S1(=O)N2CN3CCN(C2)CN1C3
inactive: [2] 105 % of control | [3] 95 % of control | [4] 115 % of control | [5] 103 % of control | [6] 98 % of control | [7] 98 % of control

COc1cccc(CCNC(=O)CC#N)c1OC
inactive: dose: 100.0 mg/kg/injection, schedule: Q01DX009 (ip), vehicle: saline 90 % of control | [3] 100 % of control | dose: 200.0 mg/kg/injection, schedule: Q01DX009 (ip), vehicle: saline 95 % of control | [5] 102 % of control | [7] 97 % of control

OC(CC1(O)C(F)(F)C(F)(F)C1(F)F)c1ccccc1 (stereo not given)
inactive: [8] 97 % of control | [9] 100 % of control

Nc1ccc2nc(N)nc(N)c2c1
inactive: dose: 37.5 mg/kg/injection, schedule: Q01DX009 (ip), vehicle: Klucel (hydroxypropylcellulose) (HPC) 121 % of control | dose: 65.0 mg/kg/injection, schedule: Q04DX003 (ip), vehicle: Klucel (hydroxypropylcellulose) (HPC) 106 % of control | dose: 75.0 mg/kg/injection, schedule: Q01DX009 (ip), vehicle: Klucel (hydroxypropylcellulose) (HPC) 107 % of control | [3] 112 % of control | dose: 150.0 mg/kg/injection, schedule: Q04DX003 (ip), vehicle: Klucel (hydroxypropylcellulose) (HPC) 112 % of control

O=C(NOCc1cscn1)Nc1ccccc1
inactive: [10] 101 % of control | [11] 104 % of control | dose: 400.0 mg/kg/injection, schedule: Q01DX001 (ip), vehicle: saline 104 % of control

COc1c(OC2OC(CO)C(O)C(O)C2O)cc2c(c1OC)-c1ccc(SC)c(=O)cc1C(NC(C)=O)CC2 (stereo not given)
inactive: dose: 6.0 mg/kg/injection, schedule: Q01DX009 (ip), vehicle: saline 97 % of control | dose: 12.0 mg/kg/injection, schedule: Q01DX001 (ip), vehicle: saline 98 % of control | dose: 12.0 mg/kg/injection, schedule: Q01DX009 (ip), vehicle: saline 98 % of control | dose: 25.0 mg/kg/injection, schedule: Q01DX001 (ip), vehicle: saline 100 % of control | dose: 25.0 mg/kg/injection, schedule: Q01DX009 (ip), vehicle: saline 101 % of control

COC(=O)/C(Br)=C\c1ccc(-c2ccccc2)cc1
inactive: [12] 93 % of control | [8] 93 % of control | [13] 93 % of control

NC(C(=O)O)c1ccc(F)cc1 (stereo not given)
inactive: dose: 50.0 mg/kg/injection, schedule: Q01DX001 (ip), vehicle: saline 104 % of control | [10] 104 % of control | [11] 101 % of control

CS(=O)(=O)NCCOc1ccc(C(=O)O)cc1
inactive: [3] 96 % of control | [5] 101 % of control | [7] 95 % of control

O=C(O)c1cccc(Br)c1[N+](=O)[O-]
inactive: [10] 97 % of control | [11] 101 % of control

C/C(=N/NC(N)=S)c1ccc(Cl)cc1
inactive: dose: 5.0 mg/kg/injection, schedule: Q01DX001 (ip), vehicle: other 105 % of control | dose: 10.0 mg/kg/injection, schedule: Q01DX001 (ip), vehicle: other 111 % of control

O=C(O)c1ccsc1Cc1cccs1
inactive: dose: 100.0 mg/kg/injection, schedule: Q01DX001 (ip), vehicle: Klucel (hydroxypropylcellulose) (HPC) 101 % of control | [8] 97 % of control and 89 % of control | dose: 200.0 mg/kg/injection, schedule: Q01DX001 (ip), vehicle: Klucel (hydroxypropylcellulose) (HPC) 92 % of control | [13] 96 % of control and 100 % of control | dose: 400.0 mg/kg/injection, schedule: Q01DX001 (ip), vehicle: Klucel (hydroxypropylcellulose) (HPC) 106 % of control | [9] 93 % of control and 89 % of control

CC(=O)N(c1ccncc1)c1ccc([N+](=O)[O-])cc1
inactive: [12] 94 % of control | [8] 97 % of control and 107 % of control | [14] 105 % of control and 108 % of control | dose: 100.0 mg/kg/injection, schedule: Q04DX003 (ip), vehicle: saline with Tween-80 98 % of control | [13] 94 % of control and 110 % of control | [15] 105 % of control and 109 % of control | dose: 200.0 mg/kg/injection, schedule: Q04DX003 (ip), vehicle: saline with Tween-80 98 % of control | [16] 92 % of control | dose: 400.0 mg/kg/injection, schedule: Q04DX003 (ip), vehicle: saline with Tween-80 104 % of control

Cc1ccc(Nc2ccc([N+](=O)[O-])cc2[N+](=O)[O-])cc1C
inactive: dose: 50.0 mg/kg/injection, schedule: Q04DX003 (ip), vehicle: Klucel (hydroxypropylcellulose) (HPC) 102 % of control | [2] 108 % of control | [3] 102 % of control | [4] 90 % of control | [5] 98 % of control and 104 % of control | [6] 97 % of control | [7] 89 % of control

COc1cccc(CCO)c1OC
inactive: dose: 50.0 mg/kg/injection, schedule: Q01DX001 (ip), vehicle: carboxymethylcellulose (CMC) 88 % of control | dose: 100.0 mg/kg/injection, schedule: Q01DX001 (ip), vehicle: carboxymethylcellulose (CMC) 91 % of control | dose: 200.0 mg/kg/injection, schedule: Q01DX001 (ip), vehicle: carboxymethylcellulose (CMC) 88 % of control | dose: 400.0 mg/kg/injection, schedule: Q01DX001 (ip), vehicle: carboxymethylcellulose (CMC) 98 % of control

CC1(C(Cl)Cl)C(=O)C=Cc2ccccc21 (stereo not given)
inactive: [14] 95 % of control | [15] 98 % of control | [16] 95 % of control

CCOC(=O)CC#N
inactive: [1] 103 % of control | dose: 200.0 mg/kg/injection, schedule: Q04DX003 (ip), vehicle: saline 103 % of control | dose: 400.0 mg/kg/injection, schedule: Q04DX003 (ip), vehicle: saline 102 % of control

NC(=O)CCc1cnc2ccccc2n1
inactive: [2] 89 % of control | [3] 106 % of control | [4] 95 % of control | [5] 106 % of control | [6] 90 % of control | [7] 97 % of control
